# Earlier results as cited in patent publication US20240416337A1, “Quantitation of chemical, biological and biochemical analytes on a flow assay using a smartphone” (Real-Time Analyzers, Inc., priority 2023, published 2024).
# Legend:
# [1] = in vivo
# [2] = blood compared with saliva
structure (smiles),measurement,setting,value
C=CC[C@@H]1/C=C(\C)C[C@H](C)C[C@H](OC)[C@H]2O[C@@](O)(C(=O)C(=O)N3CCCC[C@H]3C(=O)O[C@H](/C(C)=C/[C@@H]3CC[C@@H](O)[C@H](OC)C3)[C@H](C)[C@@H](O)CC1=O)[C@H](C)C[C@@H]2OC [tacrolimus],ionization at physiological pH,,does not ionize
same,passage through salivary glands into the oral cavity,[1],readily passes through salivary glands
same,tacrolimus concentration in the blood,[2],modestly higher than in saliva
